These results are taken from patent US6407138B1, “Composition and method for preparing electrically neutral amino acid chelates free of interfering ions” (Albion International, Inc., priority 2000, dated 2002).

Data set [1] in a line: Shaking in a plastic bag (electrostatic behaviour of the powder). In kind it is physicochemical. The note with it: shaken in a plastic bag. As for the experimental part: A 10:1 mixture of copper bisglycinate to terra alba (CaSO4) [Sample 1] was prepared and shaken together in a plastic bag. Next, a pure copper bisglycinate without the presence of terra alba [Sample 2] was also prepared and shaken in a plastic bag.

The nature of data set [2]: Rubbing between thumb and finger (hygroscopicity). The note with it: rubbed between thumb and finger; moisture from thumb, finger and surrounding air. In kind it is physicochemical. The text has this:
Sample 1 was further compared to Sample 2 by rubbing a portion of each between the thumb and finger.

A short description of a further data set: Particle size. In kind it is physicochemical. An excerpt: The particle size found in Sample 1 and Sample 2 was about 70 mesh.
A short description of data set [3]: Addition to stimulated gastric solution (stability in acid solution, colour change). The note with it: added to stimulated gastric solution. In kind it is physicochemical. As for the experimental part:
Finally, Sample 2 was added to a stimulated gastric solution which caused the product to change color. Sample 1 was similarly added to a stimulated gastric solution.

The conditions of data set [4]: zero ionic strength; reaction M^2+ + (Gly)^- <-> M(Gly)^+; cited from earlier work.

`NCC(=O)[O-].NCC(=O)[O-].[Cu+2]` [Sample 2, copper bisglycinate]: the “electrostatic behaviour: product sticking to the walls of the bag” value in data set [1] is given as “a blue hazei of product stuck the walls of the bag”. For the same compound, the “hygroscopicity: balling up with moisture” value in data set [2] was “quickly balled up”. Further, the particle size entry in the data set “Particle size” is listed as “about 70 mesh”. The “color change in stimulated gastric solution (stability in acid solution)” value in data set [3] is recorded as “change color”.
On to copper, for which the “log of the equilibrium constant” value in data set [4] is reported as 8.56.
